Results published in US4243678A, “Acylhydrocarbylaminoalkanoic acids, compositions and uses” (Byk Gulden Lomberg Chemische Fabrik GmbH, priority 1977, dated 1981).
Read-outs that look alike come from different tables or passages of the source.

Key:
[1] = Influence on pancreatic secretion of the narcotized rat; assay type: in vivo, rat (male Sprague-Dawley); settings: in vivo, LD50 mouse i.p. / ED50 rat i.d.
Description: (§1) Male Sprague-Dawley rats (body weight from 250 to 300 g) are narcotized with 1.2 g/kg urethane i.m. Then the abdominal cavity is opened medially, the bile duct is ligatured shortly above the place where it leads into the duodenum and also near to the hepatic duct, and both sections are catheterized towards the liver.
(§2) As in the rat all the pancreatic ducts lead out into the central section of the bile duct; it is possible in this way to discharge the pancreatic secretion separately from the distal (ligatured) section and the bile separately from the proximal section of the bile duct.
(§3) The quantities of pancreatic juice and bile juice obtained are measured at intervals of 30 minutes over a period from 2 hours before to 3 hours after the intraduodenal (V. jugularis externa) administration of the compounds to be tested (quantity of liquid administered 5 ml/kg).
(§4) The body temperature of the animals is maintained at 36° to 38° C. by means of electric blankets and radiation; the temperature is monitored rectally.
(§5) The liquid volumes of the 30-minute fractions after the administration of the substance are related in each case to the quantity of bile or pancreatic juice secreted prior to the application of the substance (=100%, mean of the last two measurements). The maximum percentage increase in the pancreatic or bile secretion is represented in dependence upon dose, and from this the ED50 is determined by interpolation.

[2] = system: pancreatic secretion; assay: as above; assay type: in vivo, rat (male Sprague-Dawley); settings: 0.5 h
Description: as §1, §2, §3, §4, §5

[3] = Influence on bile secretion (choleresis) of the narcotized rat; assay type: in vivo, rat (male Sprague-Dawley); settings: in vivo, LD50 mouse i.p. / ED50 rat i.d.
Description: as §1, §2, §3, §4, §5

[4] = system: bile secretion; assay: as above; assay type: in vivo, rat (male Sprague-Dawley); settings: 0.5 h, liquid volume
Description: as §1, §2, §3, §4, §5

[5] = Antihepatotoxic effect: duration of hexobarbital sleep of the rat after liver damage by CCl4; settings: rat, in vivo
Protocol: (§6) The compounds to be tested are administered 1 hour prior to the administration of CCl4 orally in a liquid volume of 10 ml/kg.
(§7) The antihepatotoxic effect of the compounds to be tested (sodium salts in aqueous solution) is determined by the reduction of the prolongation of sleeping period caused by the CCl4 liver cell damage in the groups treated, as compared with the prolongation of the sleeping period of the CCl4 control group (=100%). […]

[6] = system: liver damage by CCl4; assay: as above; settings: Rattus norvegicus, po; for ED25: read-out: ED25 antihepatotoxic effect (shortens hexobarbital narcosis by 25%)
Protocol: as §6, §7

[7] = Determination of toxicity (lethal action on the mouse after intraperitoneal application); assay type: in vivo; settings: in vivo, ip
Protocol: The toxicity investigations are carried out on female NMRI mice (body weight 22 to 26 g). The animals (5 animals per dose) are given food and water ad lib. Different doses of the substances are administered intraperitoneally. The duration of observation is 14 days. The LD50, i.e. the dose at which 50% of the animals die, is determined graphically from the dose/effect curve.

[8] = Antiulcerogenic (stomach-protective) action, pylorus ligature and acetylsalicylic acid; assay type: in vivo, rat (female); settings: in vivo; LD50 mouse i.p. / ED50 rat i.d.; Table IV; read-out: TQ (LD50/ED50), antiulcerogenic action
Protocol: (§8) The ulcer provocation is carried out on rats which have been made to fast for 24 hours (female, 180 to 200 g) by ligature of the pylorus (under ether narcosis) and the oral application of 100 mg/10 ml/kg acetylsalicylic acid. The administration of the substances was carried out intraduodenally (2.5 ml/kg) immediately after the ligature of the pylorus. The closure of the wound was carried out by means of Michel clamps. 4 hours after this, the animals were autopsied (while inebriated with ether) by dislocation of the atlas, and the stomach was resected. The stomach, opened longitudinally, is fixed on a cork board and, using a stereomicroscope with an enlargement of 10×, the number and size (=diameter) of any ulcers present were determined. The product of the degree of severity (according to the following scale of points) and the number of ulcers was used as the individual ulcer index.
(§9) As a measure of antiulcerogenic effect the reduction in the mean ulcer index of each treated group, as compared with that of the control group (=100%), was used.

[9] = system: stomach ulcer; assay: as above; assay type: in vivo, rat (female); settings: 4 h; rat, intraduodenally; Table IV; read-out: ED50 antiulcerogenic action (dose which reduces the mean ulcer index by 50%)
Protocol: as §8, §9

[10] = Table I, read-out: TQ (LD50/ED50), pancreatic secretion
[11] = Rattus norvegicus, read-out: ED50 pancreatic secretion (dose which brings about an increase in the pancreatic secretion by a maximum of 50%)
[12] = Table II, read-out: TQ (LD50/ED50), bile secretion
[13] = narcotized rat, i.d., 30 min fraction, Table II, read-out: ED50 bile secretion (dose which brings about an increase in the bile secretion by a maximum of 50%)
[14] = TQ (LD50/ED50), antihepatotoxic effect, LD50 mouse i.p. / ED50 rat p.o., Table III
[15] = read-out: ED50 antihepatotoxic effect (dose which shortens the hexobarbital narcosis by 50%)
[16] = Table VI, read-out: TQ (LD50/ED50), bile secretion
[17] = narcotized rat i.d., 30 min fraction, Table VI, read-out: ED50 bile secretion (dose which brings about an increase in the bile secretion by a maximum of 50%)
[18] = TQ LD50/ED25, antihepatotoxic effect, LD50 mouse i.p. / ED25 rat p.o., Table V
[19] = TQ LD50/ED50, antihepatotoxic effect, LD50 mouse i.p. / ED50 rat p.o., Table V
[20] = read-out: ED50 antihepatotoxic effect (shortens hexobarbital narcosis by 50%)
[21] = Table VII, read-out: TQ [LD50/ED50], pancreatic secretion
[22] = narcotized rat, i.d., liquid volume, 30 min fraction, Table VII, read-out: ED50 pancreatic secretion (dose which brings about an increase in pancreatic secretion of a maximum of 50%)

Structure (SMILES)	selectivity ratio [1, 10]	ED50 [2, 11] [mg/kg]	selectivity ratio [3, 12]	ED50 [4, 13] [mg/kg]	selectivity ratio [5, 14]	ED50 [6, 15] [mg/kg]	LD50 at 336 h ([7]; mouse, Table I) [mg/kg]	other results
COc1ccc(CCN(CCCC(=O)O)C(=O)c2ccc(Cl)cc2)cc1OC [Serial No. 9, N-(p-chloro)benzoyl-4-homoveratrylaminobutyric acid]	156	5	43	18	7.8	100	780	
CC=CC(=O)N(CCCC(=O)O)c1ccccc1-c1ccccc1 [Serial No. 27, 4-[N-(biphenyl-2-yl)crotonoylamido]butyric acid]								selectivity ratio [3, 16]: 30; ED50 [4, 17]: 10 mg/kg; selectivity ratio [5, 18]: 188; selectivity ratio [5, 19]: 107; ED25 [6]: 1.6 mg/kg; ED50 [6, 20]: 2.8 mg/kg; LD50 at 336 h ([7]; mouse, Table IV): 300 mg/kg; selectivity ratio [8]: ~5.5; ED50 [9]: ~55 mg/kg
CC(C)(C)N(CCCC(=O)O)C(=O)c1ccc(Cl)cc1 [Serial No. 2, N-(p-chloro)benzoyl-4-(tert.-butylamino)butyric acid]			57	15				LD50 at 336 h ([7]; mouse, Table II): 850 mg/kg
C#CC(CC)(CC)N(CCCC(=O)O)C(=O)c1ccc(Cl)cc1 [Serial No. 4, N-(p-chloro)benzoyl-4-[(3-ethyl-1-pentyn-3-yl)amino]butyric acid]			~40	~5				LD50 at 336 h ([7]; mouse, Table II): 200 mg/kg
CCC(C)(C)N(CCCC(=O)O)C(=O)c1ccc(Cl)cc1Cl [Serial No. 11, N-(2,4-dichloro)benzoyl-4-[(1,1-dimethylpropyl)amino]butyric acid]			32	6				LD50 at 336 h ([7]; mouse, Table II): 190 mg/kg
O=C(O)CCCN(C(=O)c1ccc(Cl)cc1)C(Cc1ccccc1)c1ccccc1 (stereo not shown) [Serial No. 17, N-(p-chloro)benzoyl-4-[(1,2-diphenylethyl)amino]butyric acid]	~160	~1	32	5	16	10	160	
CC(c1ccccc1)N(CCCC(=O)O)C(=O)c1ccc(Cl)cc1 (racemic) [Serial No. 10, N-(p-chloro)benzoyl-4-(1-phenylethylamino)butyric acid]	~60	~20	~80	~15	~120	~10	1200	
CC(=O)N(CCCC(=O)O)C(c1ccccc1)c1ccccc1 [Serial No. 14, N-acetyl-4-benzhydrylaminobutyric acid]	~220	~5	220	5	110	10	1100	
CC(C)(C)CC(C)(C)N(CCCC(=O)O)C(=O)c1ccc(F)cc1 [Serial No. 16, N-(p-fluoro)benzoyl-4-(1,1,3,3-tetramethylbutyl)aminobutyric acid]	~40	~10	57	7			400	
COc1cc(C(=O)N(CCCC(=O)O)c2cccc3ccccc23)cc(OC)c1OC [Serial No. 40, 4-{3,4,5-trimethoxy-[N-(α-naphthyl)]benzamido}butyric acid]								selectivity ratio ([3]; Table XII, read-out: TQ LD50/ED50, bile secretion): 45; ED50 ([4]; narcotized rat i.d., 30 minute fraction, Table XII, read-out: ED50 bile secretion (dose which brings about an increase in bile secretion by a maximum of 50%)): 8 mg/kg; selectivity ratio ([5]; TQ LD50/ED25, antihepatotoxic effect, LD50 mouse i.p. / ED25 rat p.o., Table XI): 21.2; selectivity ratio ([5]; TQ LD50/ED50, antihepatotoxic effect, LD50 mouse i.p. / ED50 rat p.o., Table XI): ≤ 12; ED25 [6]: 17 mg/kg; ED50 [6, 20]: ≥ 30 mg/kg; LD50 at 336 h ([7]; mouse i.p., Table XI): 360 mg/kg
CC(=O)N(CCCC(=O)O)c1ccccc1-c1ccccc1 [Serial No. 22, 4-[N-(biphenyl-2-yl)acetamido]butyric acid]								selectivity ratio [1, 21]: ~375; ED50 [2, 22]: ~2 mg/kg; selectivity ratio [3, 16]: 93.8; ED50 [4, 17]: 8 mg/kg; selectivity ratio [5, 18]: > 250; selectivity ratio [5, 19]: 50; ED25 [6]: < 3 mg/kg; ED50 [6, 20]: 15 mg/kg; LD50 at 336 h ([7]; mouse, Table IV): 750 mg/kg; selectivity ratio [8]: 13.6; ED50 [9]: 55 mg/kg
COc1ccc(Cl)cc1C(=O)N(CCCC(=O)O)c1ccc(OC)c(-c2ccccc2)c1 [Serial No. 36, 4-[2-methoxy-5-chloro-N-(6-methoxybiphenyl-3-yl)benzamido]butyric acid]								selectivity ratio [1, 21]: 38; ED50 [2, 22]: 5 mg/kg; selectivity ratio [3, 16]: 190; ED50 [4, 17]: 1 mg/kg; LD50 at 336 h ([7]; mouse i.p., Table VI): 190 mg/kg
C#CC1(N(CCCC(=O)O)C(=O)c2ccc(Cl)cc2)CCCCC1 [Serial No. 5, N-(p-chloro)benzoyl-4-[(1-ethynylcyclohexyl-1)-amino]butyric acid]	95	2	32	6			190	
